Read-outs that look alike come from different tables or passages of the source.
Experiments:
PIM-2 = PIM-2 (Homo sapiens (Human), UniProt Q9P1W9); experiment: PIM-2 biochemical assay (ADP Hunter); settings: semi-quantitative; read-out: PIM2 IC50
Source text: The biochemical assay to measure PIM-2 activity relies on the ADP Hunter assay kit (DiscoveRx Corp., Cat. #90-0077), that determines the amount of ADP as direct product of the kinase enzyme activity.

PIM-3 = PIM-3 (Homo sapiens (Human), UniProt Q86V86); experiment: PIM-3 biochemical assay (ADP Hunter); settings: semi-quantitative; read-out: PIM3 IC50
[1] = system: Bad S112 phosphorylation in H1299 cells overexpressing Pim1 (H1299Pim1); experiment: Bad S112 phosphorylation inhibition assay (In Cell ELISA); assay type: cell-based; settings: read-out: EC50 BadP ELISA H1299 Pim1
Method: Efficacy of compounds of the invention on the inhibition of Bad phosphorylation was measured by an In Cell ELISA. EC50 values were established for the tested compounds.
Cells: H1299 cells overexpressing Pim1 (H1299Pim1)
Cells were seeded in 15000 cells per 200 μl per well into 96-well plates and incubated for 16 h at 37° C., 5% CO2. On day two, nine serial 1:2 compound dilutions were made in DMSO in a 96-well plate. The compounds were added to duplicate wells in 96-well cell plates using a FX BECKMAN robot (Beckman Coulter) and incubated at 37° C. with CO2 atmosphere. After 4 hours, relative levels of Bad S112 phosphorylation were measured in Cell ELISA using SuperSignal ELISA Femto substrate (Pierce) and read on VICTOR (Perkin Elmer). EC50 values were calculated using ActivityBase from IDBS.

PIM-1 = PIM-1 (Homo sapiens (Human), UniProt P11309); experiment: PIM-1 biochemical assay (ADP Hunter)
[2] = system: MV4:11 cells (leukemia, AML); experiment: MTT in vitro cell proliferation / combination assay, MV4:11; assay type: cell-based
Method: (§1) A combination index score is calculated by the Chou and Talalay method (CalcuSyn software, Biosoft). The strength of synergy is scored using the ranking system Chou and Talalay: CI less than 0.8 indicates synergy, CI between 0.8 and 1.2 indicates additivity and CI greater than 1.2 indicates antagonism.
(§2) The EC50 values of representative combinations were also calculated. The individually measured EC50 values of the chemotherapeutic agent and the example compounds are compared to the EC50 value of the combination. The cell lines are characterised by tumor type. […]

SKMel19 cells (melanoma) = experiment: MTT in vitro cell proliferation / combination assay, SKMel19; assay type: cell-based
Method: as §1, §2

[3] = system: HTC116 cells (colon carcinoma); experiment: MTT in vitro cell proliferation / combination assay, HTC116; assay type: cell-based; settings: HTC116, chemotherapeutic alone; read-out: Chemoth EC50
Method: as §1
(§3) The EC50 values of representative combinations were also calculated. The individually measured EC50 values of the chemotherapeutic agent and the example compounds are compared to the EC50 value of the combination. The cell lines are characterised by tumor type.

DU145 cells (prostate) = experiment: MTT in vitro cell proliferation / combination assay, DU145; assay type: cell-based; settings: Homo sapiens, DU-145; DU145, chemotherapeutic alone; read-out: Chemoth EC50
Method: Proliferation assays (MTT) were performed as described in: • “Chemical interrogation of FOXO3a nuclear translocation identifies potent and selective inhibitors of phosphoinositide 3-kinases”, W. Link, J. Oyarzabal, B. G. Serelde, M. I. Albarran, O. Rabal, A. Cebria, P. Alfonso, J. Fominaya, O. Renner, S. Peregrina, D. Soilan, P. A. Ceballos, A. I. Hernandez, M. Lorenzo, P. Pevarello, T. G. Granda, G. Kurz, A. Carnero, J. R. Bischoff, J. Biol. Chem. 284 (2009) 28392-28400. Combination Assay
as §1, §3
Combination assays were performed as described in: • “Pim 1 kinase inhibitor ETP-45299 suppresses cellular proliferation and synergizes with PI3K inhibition”. Blanco-Aparicio, Carmen; Collazo, Ana Maria Garcia; Oyarzabal, Julen; Leal, Juan F.; Albaran, Maria Isabel; Lima, Francisco Ramos; Pequeno, Belen; Ajenjo, Nuria; Becerra, Mercedes; Alfonso, Patricia; Reymundo, Maria Isabel; Palacios, Irene; Mateos, Genoveva; Quinones, Helena; Corrionero, Ana; Carnero, Amancio; Pevarello, Paolo; Lopez, Ana Rodriguez; Fominaya, Jesus; Pastor, Joaquin; Bischoff, James R. Cancer Letters (Shannon, Ireland) 2011, 300(2), 145-153.

[4] = Homo sapiens, NCI-H1299, semi-quantitative
[5] = read-out: PIM1 IC50, semi-quantitative
[6] = MV4:11, combination with GDC-0879
[7] = MV4:11, combination with GDC-0941
[8] = MV4:11, combination with PD-0332991
[9] = SKMel19, combination with GDC-0879
[10] = SKMel19, combination with PD-0332991

Chain of PIM-1 (P11309 whole entry): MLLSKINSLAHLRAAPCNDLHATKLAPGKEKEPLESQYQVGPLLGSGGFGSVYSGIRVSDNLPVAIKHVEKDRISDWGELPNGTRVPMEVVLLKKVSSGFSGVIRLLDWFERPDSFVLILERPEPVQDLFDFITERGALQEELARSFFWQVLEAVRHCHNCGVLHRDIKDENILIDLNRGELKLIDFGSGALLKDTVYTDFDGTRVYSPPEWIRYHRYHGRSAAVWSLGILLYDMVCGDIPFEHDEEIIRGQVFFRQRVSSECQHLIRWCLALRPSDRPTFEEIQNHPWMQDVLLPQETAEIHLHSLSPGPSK
Chain of PIM-2 (Q9P1W9 whole entry): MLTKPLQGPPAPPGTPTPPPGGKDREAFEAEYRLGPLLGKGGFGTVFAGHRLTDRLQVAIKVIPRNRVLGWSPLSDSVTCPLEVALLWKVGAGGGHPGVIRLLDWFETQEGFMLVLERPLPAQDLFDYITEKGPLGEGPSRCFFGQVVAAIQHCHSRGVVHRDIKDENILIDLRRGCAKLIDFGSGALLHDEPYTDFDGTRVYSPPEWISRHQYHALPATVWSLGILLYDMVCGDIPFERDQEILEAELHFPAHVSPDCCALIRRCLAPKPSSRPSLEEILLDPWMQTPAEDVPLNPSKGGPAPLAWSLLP

SMILES | IC50 (PIM-2) [nM] | IC50 (PIM-3) [nM] | EC50 [1, 4] [nM] | IC50 (PIM-1; [5]) [nM] | further results
CN1CCC(CNc2nn3c(-c4cccc(OC(F)(F)F)c4)nnc3c3c2OCCN3C)CC1 [Example 17, (1-Methyl-piperidin-4-ylmethyl)-[9-methyl-3-(3-trifluoromethoxy-phenyl)-8,9-dihydro-7H-6-oxa-1,2,3a,4,9-pentaaza-cyclopenta[a]naphthalen-5-yl]-amine] | > 1000 | 100 to 1000 | 1000 to 10000 | < 100 | –
CN1CCOc2c(N[C@H]3CC[C@H](O)CC3)nn3c(-c4cccc(OC(F)(F)F)c4)nnc3c21 [Example 20, 4-[9-Methyl-3-(3-trifluoromethoxy-phenyl)-8,9-dihydro-7H-6-oxa-1,2,3a,4,9-pentaaza-cyclopenta[a]naphthalen-5-ylamino]-cyclohexanol] | > 1000 | 100 to 1000 | 250 to 1000 | – | IC50 (PIM-1): 100 to 1000 nM
CN1CCC(CNc2nn3c(-c4cccc(C#N)c4)nnc3c3c2N(C)CCO3)CC1 [Example 31, 3-{6-Methyl-5-[(1-methyl-piperidin-4-ylmethyl)-amino]-7,8-dihydro-6H-9-oxa-1,2,3a,4,6-pentaaza-cyclopenta[a]naphthalen-3-yl}-benzonitrile] | > 1000 | 100 to 1000 | 1000 to 10000 | – | IC50 (PIM-1): 100 to 1000 nM
CN1CCC(CNc2nn3c(-c4cccc(N(C)C)c4)nnc3c3c2N(C)CCO3)CC1 [Example 34, [3-(3-Dimethylamino-phenyl)-6-methyl-7,8-dihydro-6H-9-oxa-1,2,3a,4,6-pentaaza-cyclopenta[a]naphthalen-5-yl]-(1-methyl-piperidin-4-ylmethyl)-amine] | > 1000 | 100 to 1000 | 1000 to 10000 | < 100 | –
CC1CN(C)c2c(NCC3CCN(C)CC3)nn3c(-c4cccc(OC(F)(F)F)c4)nnc3c2O1 (stereo not shown) [Example 40, [6,8-Dimethyl-3-(3-trifluoromethoxy-phenyl)-7,8-dihydro-6H-9-oxa-1,2,3a,4,6-pentaaza-cyclopenta[a]naphthalen-5-yl]-(1-methyl-piperidin-4-ylmethyl)-amine] | 100 to 1000 | < 100 | 250 to 1000 | < 100 | –
COc1ccc(-c2nnc3c4c(c(N5CCC(CN)CC5)nn23)N(C)CCO4)cc1 [Example 52, C-{1-[3-(4-Methoxy-phenyl)-6-methyl-7,8-dihydro-6H-9-oxa-1,2,3a,4,6-pentaaza-cyclopenta[a]naphthalen-5-yl]-piperidin-4-yl}-methylamine] | > 1000 | > 1000 | – | 100 to 1000 | EC50 ([1]; semi-quantitative): 1000 to 10000 nM
CN1CCOc2c1c(NCC1CCNCC1)nn1c(-c3cccc(OC(F)(F)F)c3)nnc21 [Example 56, [6-Methyl-3-(3-trifluoromethoxy-phenyl)-7,8-dihydro-6H-9-oxa-1,2,3a,4,6-pentaaza-cyclopenta[a]naphthalen-5-yl]-piperidin-4-ylmethyl-amine] | – | – | – | < 100 | EC50 ([2]; Homo sapiens, MV4:11, example compound alone): 500 nM; Combination Index (CI) [2, 6]: 0.604; Synergy [2, 6]: ++ (0.3<C1<0.7); Combination Index (CI) [2, 7]: 0.024; Synergy [2, 7]: ++++ (CI<0.1); Combination Index (CI) [2, 8]: 0.309; Synergy [2, 8]: ++ (0.3<C1<0.7); EC50 (SKMel19 cells (melanoma); Homo sapiens, SK-MEL19, SKMel19, example compound alone): 6 µM; Combination Index (CI) (SKMel19 cells (melanoma); [9]): 0.516; Synergy (SKMel19 cells (melanoma); [9]): ++ (0.3<C1<0.7); Combination Index (CI) (SKMel19 cells (melanoma); [10]): 0.568; Synergy (SKMel19 cells (melanoma); [10]): ++ (0.3<C1<0.7)
CN1CCOc2c(N3CCC(CN)CC3)nn3c(-c4cccc(OC(F)(F)F)c4)nnc3c21 [Example 57, C-{1-[9-Methyl-3-(3-trifluoromethoxy-phenyl)-8,9-dihydro-7H-6-oxa-1,2,3a,4,9-pentaaza-cyclopenta[a]naphthalen-5-yl]-piperidin-4-yl}-methylamine] | > 1000 | > 1000 | 1000 to 10000 | < 100 | –
CN1CCOc2c(NCC3CCNCC3)nn3c(-c4cccc(OC(F)(F)F)c4)nnc3c21 [Example 58, [9-Methyl-3-(3-trifluoromethoxy-phenyl)-8,9-dihydro-7H-6-oxa-1,2,3a,4,9-pentaaza-cyclopenta[a]naphthalen-5-yl]-piperidin-4-ylmethyl-amine] | > 1000 | 100 to 1000 | 1000 to 10000 | < 100 | –
CNC1CCN(c2nn3c(-c4cccc(OC(F)(F)F)c4)nnc3c3c2N(C)CCO3)CC1 [Example 62, Methyl-{1-[6-methyl-3-(3-trifluoromethoxy-phenyl)-7,8-dihydro-6H-9-oxa-1,2,3a,4,6-pentaaza-cyclopenta[a]naphthalen-5-yl]-piperidin-4-yl}-amine] | 100 to 1000 | < 100 | < 250 | < 100 | –
CN1CCOc2c(N3CCC4(CC3)CC(N)C4)nn3c(-c4cccc(OC(F)(F)F)c4)nnc3c21 [Example 66, 7-[9-Methyl-3-(3-trifluoromethoxy-phenyl)-8,9-dihydro-7H-6-oxa-1,2,3a,4,9-pentaaza-cyclopenta[a]naphthalen-5-yl]-7-aza-spiro[3.5]non-2-ylamine] | > 1000 | 100 to 1000 | 1000 to 10000 | < 100 | –
COc1ccc(-c2nnc3c4c(c(NCc5ccc(F)cc5)nn23)N(C)CCO4)cc1 [Example 81, (4-Fluoro-benzyl)-[3-(4-methoxy-phenyl)-6-methyl-7,8-dihydro-6H-9-oxa-1,2,3a,4,6-pentaaza-cyclopenta[a]naphthalen-5-yl]-amine] | > 1000 | 100 to 1000 | 1000 to 10000 | < 100 | –
CC(C)NCC1CCN(c2nn3c(-c4cccc(OC(F)(F)F)c4)nnc3c3c2OCCN3C)CC1 [Example 86, Isopropyl-{1-[9-methyl-3-(3-trifluoromethoxy-phenyl)-8,9-dihydro-7H-6-oxa-1,2,3a,4,9-pentaaza-cyclopenta[a]naphthalen-5-yl]-piperidin-4-ylmethyl}-amine] | > 1000 | 100 to 1000 | 1000 to 10000 | – | IC50 (PIM-1): 100 to 1000 nM
FC(F)(F)Oc1cccc(-c2nnc3c4c(c(N5CCCCC5)nn23)OCCO4)c1 [Example 101, 5-Piperidin-1-yl-3-(3-trifluoromethoxy-phenyl)-7,8-dihydro-6,9-dioxa-1,2,3a,4-tetraaza-cyclopenta[a]naphthalene] | 100 to 1000 | 100 to 1000 | 1000 to 10000 | < 100 | –
O=C(NOC[C@H](O)CO)c1ccc(F)c(F)c1Nc1ccc(I)cc1F [PD-0325901, (R)—N-(2,3-dihydroxypropoxy)-3,4-difluoro-2-(2-fluoro-4-iodophenylamino)benz-amide, reference compound] | – | – | – | – | EC50 [3]: 1250 nM
CC(=O)O[C@@]12CO[C@@H]1C[C@H](O)[C@@]1(C)C(=O)[C@H](O)C3=C(C)[C@@H](OC(=O)[C@H](O)[C@@H](NC(=O)OC(C)(C)C)c4ccccc4)C[C@](O)([C@@H](OC(=O)c4ccccc4)[C@H]21)C3(C)C [Taxotere, (2R,3S)—N-carboxy-3-phenylisoserine, N-tert-butyl ester, 13-ester with 5,20-epoxy-1,2,4,7,10,13-hexahydroxytax-11-en-9-one 4-acetate 2-benzoate, trihydrate, reference compound] | – | – | – | – | EC50 (DU145 cells (prostate)): 25 nM

— patent US9682991B2, “Tricyclic compounds for use as kinase inhibitors” (FUNDACIÓN CENTRO NACIONAL DE INVESTIGACIONES ONCOLOGICAS …, priority 2009, dated 2017)
